According to patent US9095579B2 (priority 2012, dated 2015):
Entries after “also recorded” stand apart in the source; their conditions may differ.

Tested on: A/PR/8/34; H1N1 viruses (PR8-WT, PR8-A122V)
Set-up: species or system C57BL/6 mice
Conditions: mouse, in vivo

## CC1=C2C[C@H]3[C@@H](CC=C4C[C@@H](O)CC[C@@]43C)[C@@H]2CC[C@]12O[C@@H]1C[C@H](C)CN[C@H]1[C@H]2C [cyclopamine]
  protection from the effects of influenza infection: partially protected
ip
  columnar organization of the airway epithelium: restored a degree of columnar organization
  epithelial damage in lung airways caused by PR8-WT and PR8-A122V: reduced epithelial damage; also recorded: partially rescued; also recorded: reduces viral damage in the lung

## C[C@H]1CC[C@]2(NC1)O[C@H]1C[C@H]3[C@@H]4CC[C@H]5C[C@@H](O)CC[C@]5(C)[C@H]4CC[C@]3(C)[C@H]1[C@@H]2C [tomatidine]
ip
  epithelial damage in lung airways caused by PR8-WT and PR8-A122V: no rescue of airway damage; also recorded: no obvious effect
